Test results taken from ChEMBL document CHEMBL6121036, “Evaluation of Cereblon-Directing Warheads for the Development of Orally Bioavailable PROTACs” (J Med Chem, 2025).
≈ marks a conversion by molar mass, not a printed value. Each block holds one compound with its values, some of them ahead of it. Calls of active or inactive are those of the source. The rule behind the calls is not given here.

How the values were obtained:
[1] = biological target: T1, Protein cereblon/Bromodomain-containing protein 4 (Homo sapiens, UniProt O60885+Q96SW2); test: PROTAC activity at CRBN/Hibit-tagged BRD4 (unknown origin) expressed in HEK293 cells co-expressing LgBiT assessed as degradation of BRD4 incubated for 24 hrs by […] glo-max assay; assay type: cell-based
[2] = biological target: T1, Protein cereblon/Bromodomain-containing protein 4; test: PROTAC activity at CRBN/Hibit-tagged BRD4 (unknown origin) expressed in HEK293 cells co-expressing LgBiT assessed as degradation of BRD4 incubated for 24 hrs by […] glo-max assay relative to control; assay type: cell-based
[3] = biological target: T1, Protein cereblon/Bromodomain-containing protein 4; test: PROTAC activity at CRBN/Hibit-tagged BRD4 (unknown origin) expressed in HEK293 cells co-expressing LgBiT assessed as degradation rate incubated for 24 hrs by […] glo-max assay; assay type: cell-based
MV4-11 = test: Cytotoxicity against human MV4-11 cells assessed as reduction in cell viability incubated for 72 hrs by cell-titer glo assay; assay type: functional, cell-based; conditions: MV4-11, 72 h
HD-MB03 = test: Cytotoxicity against human HD-MB03 cells assessed as reduction in cell viability incubated for 72 hrs by cell-titer glo assay; assay type: functional, cell-based; conditions: HD-MB03, 72 h
[4] = Kinetic aqueous solubility of the compound at pH 7.4; assay type: physicochemical; conditions: read-out: Kinetic_solubility
[5] = Metabolic stability in mouse liver microsomes assessed as half life; assay type: ADME, Microsome; conditions: liver microsomes
[6] = biological target: T2, Protein cereblon/Bromodomain-containing protein 4/DNA damage-binding protein 1 (Homo sapiens) (UniProt O60885+Q96SW2+Q16531); test: Binding affinity to his-tagged CRBN/DDB1/GST-tagged BRD4 (49 to 170 residues)(unknown origin) assessed as ternary complex formation (AUC) incubated for 1 hr by luminescence based Alphascreen assay; assay type: protein assay
HEK293 = test: Cytotoxicity against HEK293 cells expressing LgBiT fused HiBiT-BRD2 measured after 24 hrs by cell titer-glo assay; assay type: toxicity, cell-based; conditions: human, hek293, 24 h
[7] = biological target: T2, Protein cereblon/Bromodomain-containing protein 4/DNA damage-binding protein 1 (Homo sapiens); test: Binding affinity to his-tagged CRBN/DDB1/GST-tagged BRD4 (49 to 170 residues)(unknown origin) assessed as ternary complex formation by measuring AUC incubated for 1 hr by luminescence based Alphascreen assay; assay type: protein assay
[8] = biological target: T3, Protein cereblon/Bromodomain-containing protein 2 (Homo sapiens) (UniProt P25440+Q96SW2); test: PROTAC activity at CRBN/Hibit-tagged CRISPR BRD2 (unknown origin) expressed in HEK293 cells coexpressing LgBiT assessed as degradation of BRD2 by […] glo-max assay; assay type: cell-based
[9] = biological target: T4, Protein cereblon/Bromodomain-containing protein 3 (Homo sapiens) (UniProt Q15059+Q96SW2); test: PROTAC activity at CRBN/Hibit-tagged CRISPR BRD3 (unknown origin) expressed in HEK293 cells co-expressing LgBiT assessed as degradation of BRD3 by […] glo-max assay; assay type: cell-based
[10] = biological target: T1, Protein cereblon/Bromodomain-containing protein 4; test: PROTAC activity at CRBN/Hibit-tagged CRISPR BRD4 (unknown origin) expressed in HEK293 cells co-expressing LgBiT assessed as degradation of BRD4 by […] glo-max assay; assay type: cell-based
[11] = biological target: T3, Protein cereblon/Bromodomain-containing protein 2 (Homo sapiens); test: PROTAC activity at CRBN/Hibit-tagged CRISPR BRD2 (unknown origin) expressed in HEK293 cells coexpressing LgBiT assessed as degradation of BRD2 by […] glo-max assay relative to control; assay type: cell-based
[12] = biological target: T4, Protein cereblon/Bromodomain-containing protein 3 (Homo sapiens); test: PROTAC activity at CRBN/Hibit-tagged CRISPR BRD3 (unknown origin) expressed in HEK293 cells co-expressing LgBiT assessed as degradation of BRD3 by […] glo-max assay relative to control; assay type: cell-based
[13] = biological target: T1, Protein cereblon/Bromodomain-containing protein 4; test: PROTAC activity at CRBN/Hibit-tagged CRISPR BRD4 (unknown origin) expressed in HEK293 cells co-expressing LgBiT assessed as degradation of BRD4 by […] glo-max assay relative to control; assay type: cell-based
[14] = biological target: T3, Protein cereblon/Bromodomain-containing protein 2 (Homo sapiens); test: PROTAC activity at CRBN/Hibit-tagged CRISPR BRD2 (unknown origin) expressed in HEK293 cells coexpressing LgBiT assessed as degradation of BRD2 measured after 10 to 14 hrs by […] glo-max assay; assay type: cell-based; conditions: time 10-14 hrs
[15] = biological target: T4, Protein cereblon/Bromodomain-containing protein 3 (Homo sapiens); test: PROTAC activity at CRBN/Hibit-tagged CRISPR BRD3 (unknown origin) expressed in HEK293 cells co-expressing LgBiT assessed as degradation of BRD3 measured after 13 to 16 hrs by […] glo-max assay; assay type: cell-based; conditions: time 13-16 hrs
[16] = biological target: T1, Protein cereblon/Bromodomain-containing protein 4; test: PROTAC activity at CRBN/Hibit-tagged CRISPR BRD4 (unknown origin) expressed in HEK293 cells co-expressing LgBiT assessed as degradation of BRD4 measured after 18 to 24 hrs by […] glo-max assay; assay type: cell-based; conditions: time 18-24 hrs
[17] = biological target: Protein cereblon (Homo sapiens) (UniProt Q96SW2); test: Binding affinity to CRBN (unknown origin)
[18] = Effect on BRD3 level in human MV4-11 cells assessed as fold change at 100 nM measured after 4 hrs; assay type: functional
[19] = Effect on BRD4 level in human MV4-11 cells assessed as fold change at 100 nM measured after 4 hrs; assay type: functional
[20] = Effect on BRD2 level in human MV4-11 cells assessed as fold change at 100 nM measured after 4 hrs; assay type: functional
[21] = Effect on MYC level in human MV4-11 cells assessed as fold change at 100 nM measured after 4 hrs; assay type: functional
[22] = Effect on FYTTD1 level in human MV4-11 cells assessed as fold change at 100 nM measured after 4 hrs; assay type: functional
[23] = Effect on CCNF level in human MV4-11 cells assessed as fold change at 100 nM measured after 4 hrs; assay type: functional
[24] = Effect on CDC42EP3 level in human MV4-11 cells assessed as fold change at 100 nM measured after 4 hrs; assay type: functional
[25] = Effect on MCL1 level in human MV4-11 cells assessed as fold change at 100 nM measured after 4 hrs; assay type: functional
[26] = Effect on PLAU level in human MV4-11 cells assessed as fold change at 100 nM measured after 4 hrs; assay type: functional
[27] = Effect on ZFP36L2 level in human MV4-11 cells assessed as fold change at 100 nM measured after 4 hrs; assay type: functional
[28] = Effect on FGL2 level in human MV4-11 cells assessed as fold change at 100 nM measured after 4 hrs; assay type: functional
[29] = Effect on NSA2 level in human MV4-11 cells assessed as fold change at 100 nM measured after 4 hrs; assay type: functional
[30] = Effect on CCND3 level in human MV4-11 cells assessed as fold change at 100 nM measured after 4 hrs; assay type: functional
[31] = Effect on AURKA level in human MV4-11 cells assessed as fold change at 100 nM measured after 4 hrs; assay type: functional
[32] = Effect on NOP53 level in human MV4-11 cells assessed as fold change at 100 nM measured after 4 hrs; assay type: functional
[33] = Effect on PLK1 level in human MV4-11 cells assessed as fold change at 100 nM measured after 4 hrs; assay type: functional
[34] = Effect on RNF166 level in human MV4-11 cells assessed as fold change at 100 nM measured after 4 hrs; assay type: functional
[35] = Effect on ZBTB21 level in human MV4-11 cells assessed as fold change at 100 nM measured after 4 hrs; assay type: functional
[36] = Effect on TP53 level in human MV4-11 cells assessed as fold change at 100 nM measured after 4 hrs; assay type: functional
[37] = Permeability in MDCK-II cells incubated for 1 hr by UPLC/MS/UV analysis; assay type: ADME, cell-based, Canis lupus familiaris; conditions: dog, read-out: permeability
[38] = Stability in mouse plasma assessed as half life by UPLC-MS/MS analysis; assay type: ADME, cell-free

SMILES: Cc1sc2c(c1C)C(c1ccc(Cl)cc1)=N[C@@H](CC(=O)NCCc1ccc(C3CCC(=O)NC3=O)cc1)c1nnc(C)n1-2 (stereo not given in full)
DC50 [1]: 0.19 nM
Emax [2]: 98%
Activity [3]: 0.733 fRLU/hr
IC50 (MV4-11): 0.18 nM
IC50 (HD-MB03): 2.23 nM
solubility kinetic [4]: 71.4 µM (≈ 43.9 µg/mL)
half-life [5]: 16.2 min
Activity [6]: Active
Activity (HEK293): Non-toxic
AUC [7]: 292000

DC50 [1]: 0.58 nM
Emax [2]: 96.6%
Activity [3]: 0.201 fRLU/hr
solubility kinetic [4]: 48.4 µM (≈ 39.1 µg/mL)
half-life [5]: 45 min
Activity [8]: Active
Activity [9]: Active
Activity [10]: Active
Activity [11]: > 95%
Activity [12]: > 95%
Activity [13]: > 90%
Activity [14]: Active
Activity [15]: Active
Activity [16]: Active
Activity [17]: Active
Papp at 1 h [37]: 3.4 ×10⁻⁶ cm/s
half-life [38]: 1790 min
SMILES: Cc1sc2c(c1C)C(c1ccc(Cl)cc1)=N[C@@H](CC(=O)N1CCC(CN3CCN(c4ccc5c(c4)CN(C4CCC(=O)NC4=O)C5=O)CC3)CC1)c1nnc(C)n1-2 (stereo not given in full)
IC50 (MV4-11): 0.14 nM
IC50 (HD-MB03): 1.56 nM
Activity [6]: Active
Activity (HEK293): Non-toxic
fold change (FC) [18]: -3.9
fold change (FC) [19]: -3.57
fold change (FC) [20]: -2.91
fold change (FC) [21]: -1.72
fold change (FC) [22]: -1.54
fold change (FC) [23]: -1.47
fold change (FC) [24]: -1.25
fold change (FC) [25]: -1.06
fold change (FC) [26]: -1.05
fold change (FC) [27]: -1
fold change (FC) [28]: -1.05
fold change (FC) [29]: -1.06
fold change (FC) [30]: -0.97
fold change (FC) [31]: -0.9
fold change (FC) [32]: -0.82
fold change (FC) [33]: -0.78
fold change (FC) [34]: -0.92
fold change (FC) [35]: -0.1
fold change (FC) [36]: 1.87
